Data as given in patent publication US20200237852A1, “Small Molecule Enhancers of Paneth Cell Function and Differentiation” (Massachusetts Institute of Technology, priority 2019, published 2020).

Tests used:
[1] = test system: organoids differentiated under ENR+CV, ENR+CD, or ENR; assay: Western blotting for LYZ in organoids; type: cell-based, C57BL/6 mice; conditions: six days in ENR+CV
From the text: ISC-enriched organoids cultured in 3D Matrigel with ENRCV media were passaged to 24-well plate in 3D Matrigel with ENRCV. At day zero, media were replaced to ENR or ENRCD with or without indicated compounds, and media were replaced every other day. At day six, cells were harvested from Matrigel by mechanical disruption and suspended in basal media. Cell pellets were lysed with Pierce® IP lysis buffer (ThermoFisher, 87787) containing Halt™ Protease Inhibitor Cocktail, EDTA-Free (ThermoFisher, 87785) after 3-minute centrifuge at 300×g at 4° C. Cell extracts were resolved by NuPAGE® SDS-PAGE Gel system (ThermoFisher) and electroblotted onto polyvinylidene difluoride membranes using Criterion™ Blotter (Biorad). The membranes were blocked with 2% Blotting-Grade Blocker (Biorad, 1706404) in TBS-T (50 mM Tris-HCl, 150 mM NaCl, and 0.1% Tween 20, pH 8.0) and then probed with appropriate antibodies. Detection was performed using ECL Select™ Western Blotting Detection Reagent (Amersham, 45-000-999) and ImageQuant LAS4000 (GE Healthcare).

ENR+CD organoids = assay: Flow cytometry analysis, 3D culture, XPO1 inhibitors; type: cell-based, C57BL/6 mice; conditions: 6-day ENR+CD organoids
Description: ISC-enriched organoids cultured in 3D Matrigel with ENRCV media were passaged to 24-well plate in 3D Matrigel with ENRCV. At day zero, media were replaced to ENRCD with or without indicated compounds, and media were replaced every other day. At day six, cells were washed with basal media, and then harvested from Matrigel by mechanical disruption in TrypLE Express (ThermoFisher, 12605010) to remove Matrigel and dissociate organoids to single cells. After vigorous pipetting and incubation at 37° C. for 20 min, dissociated organoids were strained through a 35 μm cell strainer into a tube (Falcon, 352235). The cell filtrate was centrifuged again at 300×g for 3 min at 4° C. to pellet the cells. Cell pellets were resuspended in FACS buffer (2% FBS in PBS), and then transferred to an ultra low-bind 96-well plate (Corning, 7007). Cells were stained with Zombie-violet viability dye (BioLegend, 423107) at 100× for viability staining and/or antibody staining solution. FITC-conjugated antibody for lysozyme (Dako, […]) and APC-conjugated antibody for CD24 (BioLegend, 138505) were used at 100× dilution. Flow cytometry was performed using an LSR Fortessa (BD; Koch Institute Flow Cytometry Core at MIT). The data were analyzed using FlowJo v10 software.

[2] = test system: conventional organoid (ENR); assay: 384-well screen in conventional organoid (ENR), secreted LYZ (LYZ.NS, LYZ.S); type: cell-based, C57BL/6 mice; conditions: 6-day ENR differentiation compared with ENR+CD
6-day ENR+CD cells [3] = assay: Short-term (3-hour) stimulation of LYZ secretion, 2.5-D 96-well platform; type: cell-based, murine
From the text: We first sought to profile the potential short-term actors, IFN-γ, LPS, and CCh, and see if with the added resolution of this first-of-its-kind PC platform, we might be able to determine high-resolution EC50's. To generate sufficient cells for plating out all necessary conditions we first expanded and enriched ISCs in traditional 3-D culture and subsequently differentiated for 4 days towards PCs (ENR+CD). Next, we passaged and plated these cells into 96-well plates as 2.5-D and continued differentiating for an additional 2 days in ENR+CD. On day 6 of differentiation, each well was then washed with basal media repeatedly and stimulated with its respective agent, with a measurement of supernatant LYZ paired to cell pellet ATP (FIG. 2A). This screen was repeated on three separate occasions with cells from three distinct murine donors and analyzed combined. We first wanted to determine the approximate standardized effect size of each treatment at each dose, which was accomplished through the replicate-based strictly standardized mean difference (SSMD), an effect size measure based on the statistics of contrast variables, and particularly useful in screening applications as it is a measure which takes into account both mean difference and variance in a single measure. […] In total, we see that our 2.5-D platform does provide a reasonable system for assessing and screening for potential short-term modulators of PC antimicrobial secretion.
Small intestinal crypts were isolated from C57BL/6 mice of both sexes, aged between three to six months in all experiments. Crypts were then cultured in a Matrigel culture system. Briefly, crypts were resuspended in basal culture medium (Advanced DMEM/F12 with 2 mM GlutaMAX and 10 mM HEPES; Thermo Fisher Scientific) at a 1:1 ratio with Corning™ Matrigel™ Membrane Matrix—GFR (Fisher Scientific) and plated at the center of each well of 24-well plates. […]

6-day ENR+CD cells [4] = assay: Cell pellet ATP after short-term (3-hour) stimulation, 2.5-D 96-well platform; type: cell-based, murine; conditions: CCh: adj. p<0.01 for 10 and 100 μM doses
From the text: We first sought to profile the potential short-term actors, IFN-γ, LPS, and CCh, and see if with the added resolution of this first-of-its-kind PC platform, we might be able to determine high-resolution EC50's. To generate sufficient cells for plating out all necessary conditions we first expanded and enriched ISCs in traditional 3-D culture and subsequently differentiated for 4 days towards PCs (ENR+CD). Next, we passaged and plated these cells into 96-well plates as 2.5-D and continued differentiating for an additional 2 days in ENR+CD. On day 6 of differentiation, each well was then washed with basal media repeatedly and stimulated with its respective agent, with a measurement of supernatant LYZ paired to cell pellet ATP (FIG. 2A). This screen was repeated on three separate occasions with cells from three distinct murine donors and analyzed combined. We first wanted to determine the approximate standardized effect size of each treatment at each dose, which was accomplished through the replicate-based strictly standardized mean difference (SSMD), an effect size measure based on the statistics of contrast variables, and particularly useful in screening applications as it is a measure which takes into account both mean difference and variance in a single measure. […]

Which results are given for `CCC(=C/[C@H](C)C/C=C/C(C)=C/[C@@H](C)C(=O)[C@@H](C)[C@H](O)[C@@H](C)C/C(C)=C/C(=O)O)/C=C/[C@@H]1OC(=O)C=C[C@@H]1C` [Leptomycin B]?
LYZ abundance on a per-mass protein normalized basis (western blot) [1]: appreciably increase LYZ abundance; Paneth cell representation by flow cytometry (ENR+CD organoids): statistically significant increases in Paneth cell representation

For `CCc1c(C(=O)C(N)=O)c2c(OCC(=O)O)cccc2n1Cc1ccccc1` [Varespladib], which “mean fold change in LYZ.NS/ATP and LYZ.S/ATP (LYZ secretion per cell) in ENR” value [2] is on record?
The value was “minimal effects in the ENR-only system”.

What does the source list for `C[N+](C)(C)CCOC(N)=O.[Cl-]` [CCh, carbamyl choline]?
EC50 (6-day ENR+CD cells [3]; 3-hour stimulation of 6-day ENR+CD cells, 9-well replicates from 3 bio. donors, read-out: EC50 for LYZ secretion (least-squares dose-response fit)): 5 µM; SSMD effect size as short-term modulator of LYZ secretion (6-day ENR+CD cells [3]; 3-hour stimulation, across all tested doses): strong effect; effect on cellular ATP (6-day ENR+CD cells [4]): significant effect on cellular ATP
